Structures can show the parent of a compound that is named as a salt. Where two headings read alike, the source gives them in different places. Blank lines part the entries; values can stand above or below the compound they belong to.
Key:
human NTCP [1] = target: T1, human NTCP (Homo sapiens, UniProt Q14973); assay: Screening taurocholate uptake assay (96-well, [14C]taurocholate, 10 µM drug)
T1 sequence (Q14973 1-349): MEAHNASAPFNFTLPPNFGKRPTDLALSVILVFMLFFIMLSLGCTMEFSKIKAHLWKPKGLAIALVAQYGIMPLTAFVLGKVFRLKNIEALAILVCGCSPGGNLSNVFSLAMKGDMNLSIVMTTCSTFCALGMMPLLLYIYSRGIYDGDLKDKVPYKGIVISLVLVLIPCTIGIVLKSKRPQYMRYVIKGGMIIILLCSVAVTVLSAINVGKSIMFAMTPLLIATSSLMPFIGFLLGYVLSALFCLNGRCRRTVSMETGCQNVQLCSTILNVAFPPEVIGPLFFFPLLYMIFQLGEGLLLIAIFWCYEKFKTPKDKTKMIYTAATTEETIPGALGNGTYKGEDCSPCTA

human NTCP [2] = target: T1, human NTCP; assay: Screening fluorescent competitive Myrcludex B-FITC binding assay (96-well, 10 µM drug)
[3] = Prestwick library screen, 10 µM drug, B-score of taurocholate uptake
[4] = combined ranking from functional and binding assay B-scores
[5] = Prestwick library screen, 10 µM drug, B-score of Myrcludex B-FITC binding
[6] = combined ranking from functional and binding screening assays
[7] = screen, 10 µM drug, taurocholate uptake
[8] = screen, 10 µM drug, Myrcludex B-FITC binding
[9] = Prestwick library screen, taurocholate uptake, 10 µM drug
[10] = ranking score beside the functional and binding assay B-scores of the screen
[11] = Prestwick library screen, Myrcludex B-FITC binding, 10 µM drug

- B-score functional assay (human NTCP [1]; [3]): 0.776
- Ranking score (human NTCP [1]; [4]): 1078.72
- B-score binding assay (human NTCP [2]; [5]): 1.631
Compound: Cc1cc(C2CCCCC2)n(O)c(=O)c1.NCCO [Ciclopirox ethanolamine]

- Ranking score (human NTCP [1]; [6]): 446.637
- B-score functional assay (human NTCP [1]; [7]): -0.174
- B-score binding assay (human NTCP [2]; [8]): -0.418
Compound: O=C1CCc2cc(OCCCCc3nnnn3C3CCCCC3)ccc2N1 [Cilostazol]

- B-score functional assay (human NTCP [1]; [9]): 0.628
- Ranking score (human NTCP [1]; [10]): 764.984
- B-score binding assay (human NTCP [2]; [11]): -0.016
Compound: COc1ccc(C[C@@H]2c3cc(OC)c(OC)cc3CC[N@+]2(C)CCC(=O)OCCCCCOC(=O)CC[N@@+]2(C)CCc3cc(OC)c(OC)cc3[C@H]2Cc2ccc(OC)c(OC)c2)cc1OC [Cisatracurium besylate]

- Ranking score (human NTCP [1]; [6]): 370.485
- B-score functional assay (human NTCP [1]; [7]): -1.781
- B-score binding assay (human NTCP [2]; [8]): 0.501
Compound: CC[C@H]1OC(=O)[C@H](C)[C@@H](O[C@H]2C[C@@](C)(OC)[C@@H](O)[C@H](C)O2)[C@H](C)[C@@H](O[C@@H]2O[C@H](C)C[C@H](N(C)C)[C@H]2O)[C@](C)(OC)C[C@@H](C)C(=O)[C@H](C)[C@@H](O)[C@]1(C)O [Clarithromycin]

Compound: O=C([O-])[C@H]1/C(=C/CO)O[C@@H]2CC(=O)N21.[K+] [Clavulanate potassium salt]
- B-score functional assay (human NTCP [1]; [3]): 0.008
- Ranking score (human NTCP [1]; [4]): 886.007
- B-score binding assay (human NTCP [2]; [5]): 2.079

- B-score functional assay (human NTCP [1]; [9]): 0.453
- Ranking score (human NTCP [1]; [10]): 697.485
- B-score binding assay (human NTCP [2]; [11]): -0.092
Compound: COc1cc(N)c(Cl)cc1C(=O)NC1CCN(Cc2ccccc2)CC1 [Clebopride maleate]

- Ranking score (human NTCP [1]; [6]): 418.626
- B-score functional assay (human NTCP [1]; [7]): 2.268
- B-score binding assay (human NTCP [2]; [8]): -1.618
Compound: Cl.Clc1ccc(Cn2c(CN3CCCC3)nc3ccccc32)cc1 [Clemizole hydrochloride]

Compound: C[N+]12CCC(CC1)C(OC(=O)C(O)(c1ccccc1)c1ccccc1)C2 (stereo not drawn) [Clidinium bromide]
- B-score functional assay (human NTCP [1]; [3]): 0.121
- Ranking score (human NTCP [1]; [4]): 877.232
- B-score binding assay (human NTCP [2]; [5]): 0.853

- Ranking score (human NTCP [1]; [6]): 295.014
- B-score functional assay (human NTCP [1]; [7]): -0.349
- B-score binding assay (human NTCP [2]; [8]): -1.253
Compound: NC1CCN(c2c(F)cc3c(=O)c(C(=O)O)cn(C4CC4)c3c2Cl)C1 (stereo not drawn) [Clinafloxacin]

- Ranking score (human NTCP [1]; [6]): 443.089
- B-score functional assay (human NTCP [1]; [7]): -0.468
- B-score binding assay (human NTCP [2]; [8]): -0.166
Compound: O=P(O)(O)C(Cl)(Cl)P(=O)(O)O [Clodronate]

- Ranking score (human NTCP [1]; [6]): 436.188
- B-score functional assay (human NTCP [1]; [7]): -0.006
- B-score binding assay (human NTCP [2]; [8]): -0.74
Compound: CC(C)/N=c1\cc2n(-c3ccc(Cl)cc3)c3ccccc3nc-2cc1Nc1ccc(Cl)cc1 [Clofazimine]

- B-score functional assay (human NTCP [1]; [3]): 1.746
- Ranking score (human NTCP [1]; [4]): 1068.42
- B-score binding assay (human NTCP [2]; [5]): 0.712
Compound: CCOC(=O)C(C)(C)Oc1ccc(Cl)cc1 [Clofibrate]

- B-score functional assay (human NTCP [1]; [3]): 1.224
- Ranking score (human NTCP [1]; [4]): 881.708
- B-score binding assay (human NTCP [2]; [5]): 0.048
Compound: CC(C)(Oc1ccc(Cl)cc1)C(=O)O [Clofibric acid]

Compound: CCN(CC)CCOc1ccc(C(=C(Cl)c2ccccc2)c2ccccc2)cc1.O=C(O)CC(O)(CC(=O)O)C(=O)O [Clomiphene citrate (Z,E)]
- B-score functional assay (human NTCP [1]; [9]): 0.862
- Ranking score (human NTCP [1]; [10]): 678.964
- B-score binding assay (human NTCP [2]; [11]): -0.291

Compound: CN(C)CCCN1c2ccccc2CCc2ccc(Cl)cc21 [Clomipramine hydrochloride]
- B-score functional assay (human NTCP [1]; [9]): 4.061
- Ranking score (human NTCP [1]; [10]): 759.266
- B-score binding assay (human NTCP [2]; [11]): -0.277

Compound: Cc1c(Cl)cccc1Nc1ncccc1C(=O)O.NCCCC[C@H](N)C(=O)O [Clonixin Lysinate]
- B-score functional assay (human NTCP [1]): -1.707
- Ranking score (human NTCP [1]): 317.248
- B-score binding assay (human NTCP [2]): 0

Compound: Cl.Clc1ccc(C(OCCN2CCCCC2)c2ccccc2)cc1 (stereo not drawn) [Cloperastine hydrochloride]
- B-score functional assay (human NTCP [1]; [3]): 2.21
- Ranking score (human NTCP [1]; [4]): 1021.61
- B-score binding assay (human NTCP [2]; [5]): 0.356

- Ranking score (human NTCP [1]; [6]): 419.199
- B-score functional assay (human NTCP [1]; [7]): 0.915
- B-score binding assay (human NTCP [2]; [8]): -1.412
Compound: COC(=O)[C@H](c1ccccc1Cl)N1CCc2sccc2C1 [Clopidogrel]

- B-score functional assay (human NTCP [1]; [9]): 0.953
- Ranking score (human NTCP [1]; [10]): 659.111
- B-score binding assay (human NTCP [2]; [11]): -0.388
Compound: Nc1cc(C(Cl)=C(Cl)Cl)c(S(N)(=O)=O)cc1S(N)(=O)=O [Clorsulon]

- Ranking score (human NTCP [1]; [6]): 434.757
- B-score functional assay (human NTCP [1]; [7]): 1.754
- B-score binding assay (human NTCP [2]; [8]): -1.468
Compound: C[C@]12C[C@H](O)[C@H]3[C@@H](CCC4=CC(=O)CC[C@@]43C)[C@@H]1CC[C@@H]2C(=O)CO [Corticosterone]

- B-score functional assay (human NTCP [1]; [9]): 0.009
- Ranking score (human NTCP [1]; [10]): 752.137
- B-score binding assay (human NTCP [2]; [11]): 0.369
Compound: CC(=O)OCC(=O)[C@@]1(O)CC[C@H]2[C@@H]3CCC4=CC(=O)CC[C@]4(C)[C@H]3[C@@H](O)C[C@@]21C [Cortisol acetate]

Source: paper PMC5681660, “Reduced hepatitis B and D viral entry using clinically applied drugs as novel inhibitors of the bile acid transporter NTCP” (Scientific Reports, 2017)
